Test results as given in patent US20110009628A1, “Compounds and Compositions for Modulating Lipid Levels and Methods of Preparing Same” (priority 2009, published 2011).

Experiments:
Assay type in all cases: cell-based, human
[1] = tested on: PCSK9 mRNA expression in HepG2 cells; assay: PCSK9 mRNA expression in HepG2 cells, simvastatin versus compound 91 (Example 10); conditions: 24 hours, FIG. 4B
Experimental: (§1) In yet another experiment, HepG2 cells were treated with various compounds for 24 hours at the indicated doses. Total RNA was isolated and 2 μg was used to generate cDNA in a reaction containing random primers and M-MLV at 37° C. for 1 hour in a volume of 25 μL. Real-time PCR was performed on the cDNA using MCEP REALPLEX 2 SYSTEM (Eppendorf) and Universal MasterMix (Applied Biosystems). Human LDLR and GAPDH Pre-Developed TaqMan Assay Reagents (Applied Biosystems) were used to assess the levels of mRNA expressions in HepG2. The levels of LDLR mRNA were normalized to that of GAPDH. Each RNA samples was assayed in triplicate. The abundance of LDLR mRNA in untreated cells was defined as 1, and the amounts of LDLR mRNA from compound-treated cells were plotted relative to that value in FIG. 2B. The data shown are mean±s.d.
(§2) Total RNA was harvested for quantitative real-time RT-PCR analysis using method described in Examples 5B. The fold activity was derived by dividing the amount of normalized LDLR or PCSK9 mRNA in compound-treated cells over the amount of LDLR or PCSK9 mRNA in untreated control cells.

[2] = tested on: intracellular triglyceride in HepG2 cells; assay: Reduction of intracellular triglyceride in HepG2 cells (Example 8); conditions: B, compound dose ≦40 μM
From the text: Berberine chloride was used for comparison. The amount of TG in untreated control cells was defined as 100% and the amounts of TG in compound-treated cells were divided to that value.

[3] = tested on: LDLR mRNA expression in HepG2 cells; assay: LDLR mRNA expression in HepG2 cells, quantitative real-time RT-PCR (Example 7); conditions: dose less than or equal to 10 μM, 24 hours
In short: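 LDLR mRNA quantified by TaqMan real-time PCR in triplicate, normalized to GAPDH and expressed relative to untreated cells set at 1 (mean±s.d.).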

[4] = tested on: LDLR mRNA expression in HepG2 cells; assay: LDLR mRNA expression in HepG2 cells, simvastatin versus compound 91 (Example 10); conditions: 24 hours, FIG. 4A
Experimental: as §1, §2

COc1cc2c(cc1OC)C1Cc3ccc(OC)c(OS(=O)(=O)c4ccccc4)c3CN1CC2 (stereo not shown) [Compound 91, 2,3,10-trimethoxy-5,6,7,8,13,13a-hexahydroisoquinolino[2,1-b]isoquinolin-9-yl benzenesulfonate]
PCSK9 mRNA expression [1]: inhibits | Activity on reduction of cellular TG accumulation (% of control) [2]: 71.17 ± 2.23 % of control | Activity on LDLR mRNA expression (Fold of control) [3]: 3.77 ± 0.20 Fold of control | LDLR mRNA expression [4]: dose-dependently increases
